{
  "source": "patent US20100004234A1",
  "about": "“SPECIFIC KINASE INHIBITORS” (Kosan Biosciences Incorporated, priority 2004, published 2010)",
  "key": {"[1]": {"target": "TrkA (Homo sapiens, UniProt P04629)", "sequence (P04629 33-796)": "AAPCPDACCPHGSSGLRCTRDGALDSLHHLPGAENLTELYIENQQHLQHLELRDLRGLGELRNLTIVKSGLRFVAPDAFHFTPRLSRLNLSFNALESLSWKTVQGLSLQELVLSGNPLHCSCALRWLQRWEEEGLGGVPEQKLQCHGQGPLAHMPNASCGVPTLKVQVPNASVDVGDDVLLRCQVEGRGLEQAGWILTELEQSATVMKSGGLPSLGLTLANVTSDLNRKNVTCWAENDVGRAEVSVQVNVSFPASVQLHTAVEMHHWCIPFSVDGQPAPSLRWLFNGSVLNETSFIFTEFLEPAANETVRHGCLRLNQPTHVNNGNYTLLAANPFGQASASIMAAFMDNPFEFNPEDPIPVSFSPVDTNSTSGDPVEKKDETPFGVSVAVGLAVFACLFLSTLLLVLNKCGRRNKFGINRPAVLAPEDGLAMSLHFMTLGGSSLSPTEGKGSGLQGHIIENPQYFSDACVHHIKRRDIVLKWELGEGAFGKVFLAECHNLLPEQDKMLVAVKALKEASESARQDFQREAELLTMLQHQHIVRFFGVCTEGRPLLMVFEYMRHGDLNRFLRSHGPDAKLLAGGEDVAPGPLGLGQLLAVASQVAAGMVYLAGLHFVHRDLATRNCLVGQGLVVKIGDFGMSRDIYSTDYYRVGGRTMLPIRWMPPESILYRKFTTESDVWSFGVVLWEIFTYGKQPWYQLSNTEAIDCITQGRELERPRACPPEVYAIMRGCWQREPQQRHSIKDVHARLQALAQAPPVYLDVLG", "assay": "Time-dependent kinase inhibition kinetics (progress curve)", "type": "biochemical", "procedure": "(§1) Typically, one measures the increase in inhibition of protein kinase activity in the presence of inhibitor over time. In one method, aliquots of a “pre-incubation” reaction mixture containing enzyme and inhibitor are assayed for activity (initial velocities) over time; increased inhibition or decreased initial velocities will be observed over time as the Michael adduct forms (Walsh, C, Enzyme Reaction Mechanisms, W.H. Freeman & Co., 1979, pp 86-94). In a second method, the time dependent loss of activity is measured as “progress curves” that measure and analyze product formed (e.g. ADP) versus time (Morrison & Walsh, Adv. Enzymol Relat Areas Mol. Biol. 1988, 61, 201-301). In either case, the time dependent inactivation can be dampened by the presence of a competing substrate, in this case ATP.\n(§2) For covalent inhibitors, plots of log (activity) versus time provide apparent first-order rate constants (kobsd) of enzyme activity loss. If these assays are performed at varying concentrations of inhibitor, a series of first-order plots is obtained and kobsd obtained at each inhibitor concentration. To measure time-dependent inhibition using the “progress-curve method” (see references cited above and Kuzmic et al., Methods Enzymol 2004; 383: 366-81), ERK (or other kinase) is treated with varying amounts of the lactone inhibitor, and the formation of ADP is measured continuously by a coupled assay. […] Such molecules may be competitive inhibitors but should not show time-dependent inactivation.\n(§3) Those of skill in the art will recognize that within the set of compounds useful in the methods of the invention, significant variability in specificity can be achieved, allowing one to identify optimal compounds for different applications. Inhibition progress curve analysis was performed using continuous, colorimetric, or fluorimetric assays. All experiments were done at 1 mM ATP, with the exception of KDR (at 5 mM ATP).\n(§4) MEK1 assays were performed using pre-incubation experiments with radioactive [^32P]ATP and filter binding of product. All other kinases were analyzed using progress curve analysis from a continuous spectrophotometric assay."}, "[2]": {"target": "GSK3α (Homo sapiens, UniProt P49840)", "sequence (P49840 whole entry)": "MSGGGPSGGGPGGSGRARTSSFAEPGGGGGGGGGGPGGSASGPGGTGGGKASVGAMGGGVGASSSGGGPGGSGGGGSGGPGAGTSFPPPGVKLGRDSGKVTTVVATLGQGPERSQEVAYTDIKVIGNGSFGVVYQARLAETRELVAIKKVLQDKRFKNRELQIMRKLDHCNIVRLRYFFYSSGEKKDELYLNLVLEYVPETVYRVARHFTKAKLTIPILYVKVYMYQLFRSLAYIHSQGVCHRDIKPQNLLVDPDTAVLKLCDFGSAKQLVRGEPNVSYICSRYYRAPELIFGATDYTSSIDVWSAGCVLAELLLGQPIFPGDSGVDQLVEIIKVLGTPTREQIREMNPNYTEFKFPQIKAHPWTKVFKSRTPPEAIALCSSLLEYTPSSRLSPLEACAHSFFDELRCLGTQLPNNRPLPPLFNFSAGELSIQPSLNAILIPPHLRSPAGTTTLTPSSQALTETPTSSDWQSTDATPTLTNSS", "assay": "Time-dependent kinase inhibition kinetics (progress curve)", "type": "biochemical", "procedure": "as §1, §2, §3, §4"}, "[3]": {"target": "GSK3β (Homo sapiens, UniProt P49841)", "sequence (P49841 whole entry)": "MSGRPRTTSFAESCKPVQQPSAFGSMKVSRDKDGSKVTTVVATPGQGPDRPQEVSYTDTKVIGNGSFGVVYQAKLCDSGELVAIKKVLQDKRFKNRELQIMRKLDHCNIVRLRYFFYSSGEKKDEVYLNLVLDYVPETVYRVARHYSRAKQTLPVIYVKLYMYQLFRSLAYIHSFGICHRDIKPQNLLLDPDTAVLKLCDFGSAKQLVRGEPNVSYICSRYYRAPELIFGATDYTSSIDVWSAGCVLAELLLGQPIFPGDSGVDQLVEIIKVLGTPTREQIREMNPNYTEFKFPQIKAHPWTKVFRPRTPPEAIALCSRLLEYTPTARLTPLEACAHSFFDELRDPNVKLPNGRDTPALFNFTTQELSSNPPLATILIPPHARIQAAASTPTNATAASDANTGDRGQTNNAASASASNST", "assay": "Time-dependent kinase inhibition kinetics (progress curve)", "type": "biochemical", "procedure": "as §1, §2, §3, §4"}, "[4]": {"target": "T1, Flt-3 (Homo sapiens, UniProt P36888)", "T1 sequence (P36888 27-993)": "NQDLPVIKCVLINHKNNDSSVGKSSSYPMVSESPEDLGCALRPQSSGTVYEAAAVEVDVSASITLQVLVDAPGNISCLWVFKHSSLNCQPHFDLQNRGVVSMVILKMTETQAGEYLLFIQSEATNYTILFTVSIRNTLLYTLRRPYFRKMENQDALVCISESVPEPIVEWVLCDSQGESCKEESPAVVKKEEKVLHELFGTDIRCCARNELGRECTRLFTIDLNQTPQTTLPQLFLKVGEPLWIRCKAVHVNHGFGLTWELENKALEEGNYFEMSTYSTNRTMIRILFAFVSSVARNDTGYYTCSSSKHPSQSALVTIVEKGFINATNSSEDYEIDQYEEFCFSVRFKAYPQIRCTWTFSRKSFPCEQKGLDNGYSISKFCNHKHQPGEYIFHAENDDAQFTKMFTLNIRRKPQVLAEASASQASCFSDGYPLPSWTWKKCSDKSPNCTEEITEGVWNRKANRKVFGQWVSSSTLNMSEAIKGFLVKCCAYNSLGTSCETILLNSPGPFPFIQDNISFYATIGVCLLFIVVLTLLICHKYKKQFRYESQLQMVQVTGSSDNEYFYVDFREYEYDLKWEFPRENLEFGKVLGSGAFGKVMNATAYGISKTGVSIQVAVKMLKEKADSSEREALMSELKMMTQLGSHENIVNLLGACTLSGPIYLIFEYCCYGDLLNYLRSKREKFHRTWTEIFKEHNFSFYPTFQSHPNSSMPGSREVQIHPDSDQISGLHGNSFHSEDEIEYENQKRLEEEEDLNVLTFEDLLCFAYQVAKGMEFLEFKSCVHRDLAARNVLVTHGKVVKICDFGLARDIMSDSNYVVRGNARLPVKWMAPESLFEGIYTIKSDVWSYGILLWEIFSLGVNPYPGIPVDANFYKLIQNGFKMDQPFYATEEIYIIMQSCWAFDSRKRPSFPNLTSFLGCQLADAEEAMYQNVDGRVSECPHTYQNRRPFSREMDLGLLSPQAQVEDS", "assay": "Time-dependent kinase inhibition kinetics (progress curve)", "type": "biochemical", "procedure": "as §1, §2, §3, §4"}, "[5]": {"target": "PDGFRβ (Homo sapiens, UniProt P09619)", "sequence (P09619 33-1106)": "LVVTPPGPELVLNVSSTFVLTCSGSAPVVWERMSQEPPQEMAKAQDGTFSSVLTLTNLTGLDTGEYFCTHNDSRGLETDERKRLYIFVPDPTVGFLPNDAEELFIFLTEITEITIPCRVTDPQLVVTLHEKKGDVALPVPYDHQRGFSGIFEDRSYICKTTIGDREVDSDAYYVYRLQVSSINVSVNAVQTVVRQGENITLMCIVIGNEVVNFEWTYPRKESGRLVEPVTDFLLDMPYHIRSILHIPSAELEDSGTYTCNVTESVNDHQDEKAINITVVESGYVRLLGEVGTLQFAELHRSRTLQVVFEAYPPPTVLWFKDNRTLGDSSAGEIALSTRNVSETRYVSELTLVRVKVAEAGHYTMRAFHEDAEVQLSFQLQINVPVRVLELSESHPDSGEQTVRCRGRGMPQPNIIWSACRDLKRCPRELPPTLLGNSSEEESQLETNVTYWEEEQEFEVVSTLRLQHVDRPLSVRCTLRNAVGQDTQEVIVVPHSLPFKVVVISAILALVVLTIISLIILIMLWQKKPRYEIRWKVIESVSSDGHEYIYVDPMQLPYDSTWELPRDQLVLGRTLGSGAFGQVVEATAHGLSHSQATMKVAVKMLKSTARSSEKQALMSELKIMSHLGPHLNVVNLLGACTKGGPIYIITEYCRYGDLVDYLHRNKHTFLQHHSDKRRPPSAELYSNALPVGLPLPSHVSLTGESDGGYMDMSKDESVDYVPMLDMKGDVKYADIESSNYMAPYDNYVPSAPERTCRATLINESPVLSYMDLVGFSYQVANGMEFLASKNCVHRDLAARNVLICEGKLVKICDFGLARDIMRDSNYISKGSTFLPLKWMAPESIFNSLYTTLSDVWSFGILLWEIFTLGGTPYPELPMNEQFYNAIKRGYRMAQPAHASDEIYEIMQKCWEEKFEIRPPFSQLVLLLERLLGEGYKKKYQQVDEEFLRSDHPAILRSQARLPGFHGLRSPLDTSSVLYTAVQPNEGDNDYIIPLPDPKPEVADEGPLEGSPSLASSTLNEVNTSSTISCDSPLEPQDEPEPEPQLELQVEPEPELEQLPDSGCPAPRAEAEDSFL", "assay": "Time-dependent kinase inhibition kinetics (progress curve)", "type": "biochemical", "procedure": "as §1, §2, §3, §4"}, "[6]": {"tested_on": "phosphorylated ERK in COLO829 cells (B-Raf V599E)", "assay": "Phospho-ERK Western blot in COLO829 cells", "type": "cell-based, human", "procedure": "The downstream effects of inhibition of a particular kinase (e.g. MEK) can be established by measuring the phosphorylation state of several proteins that require that kinase for phosphorylation (e.g. ERK1). Cultured cells are treated with hypothemycin or other lactone analogs described herein, and Western blots of cell extracts are probed with antibodies specific for the unmodified and phosphorylated forms of the downstream targets. As an example, the effects of hypothemycin on MEK1/2 can be determined by measuring the level of ERK1/2 phosphorylation.\nReferring to FIG. 8, B-Raf V599E mutant melanoma cell line COLO829 was incubated with 1 microM hypothemycin for 2, 5, 10, 15, 30, and 60 minutes. The cells were then lysed and the proteins extracted. Equal amounts of total protein from each sample were separated by SDS-PAGE followed by electroblotting to a PVDF membrane. The levels of phospho-ERK present in each extract were visualized by incubation of the membrane with anti-phosphoERK antibody (Cell Signaling Technologies) followed by incubation with an HRP linked secondary antibody. Phospho-ERK containing bands were detected by autoradiography using the ECL Western detection kit (Amersham)."}},
  "note": "pKi: −log10 of the molar value.",
  "data": [
    {"smiles": "COc1cc(O)c2c(c1)[C@H]1O[C@@H]1C[C@H](O)[C@H](O)C(=O)/C=C\\C[C@H](C)OC2=O", "note": "[Hypothemycin, hypothemycin]", "values": [
      {"measurement": "pKi", "setting": "[1]; TRKA, reversible inhibition competitive with ATP", "result": 5.66},
      {"measurement": "kinact/Ki", "setting": "[1]; TrkA", "result": "None"},
      {"measurement": "time-dependent inactivation (covalent bond formation)", "setting": "[1]; TrkA", "result": "did not show time-dependent inactivation"},
      {"measurement": "kinact", "setting": "[1]; TrkA, 1 mM ATP", "result": "None"},
      {"measurement": "pKi", "setting": "[2]", "result": "< 3.20"},
      {"measurement": "pKi", "setting": "[3]", "result": 3.43},
      {"measurement": "kinact/KI", "setting": "[3]; GSK3β", "result": 5.4, "unit": "M⁻¹ s⁻¹"},
      {"measurement": "kinact", "setting": "[3]; GSK3β, 1 mM ATP", "result": 0.002, "unit": "s⁻¹"},
      {"measurement": "kinact/KI", "setting": "[4]", "result": 47000, "unit": "M⁻¹ s⁻¹"},
      {"measurement": "pKi", "setting": "[4]; 1 mM ATP", "result": 6.82},
      {"measurement": "kinact", "setting": "[4]; 1 mM ATP", "result": 0.007, "unit": "s⁻¹"},
      {"measurement": "kinact/KI", "setting": "[5]", "result": 2500, "unit": "M⁻¹ s⁻¹"},
      {"measurement": "pKi", "setting": "[5]; 1 mM ATP", "result": 5.92},
      {"measurement": "kinact", "setting": "[5]; 1 mM ATP", "result": 0.003, "unit": "s⁻¹"},
      {"measurement": "time phosphorylated active ERK is absent after removal of the inhibitor", "setting": "[6]; COLO829 (and other BRAF mutant cells)", "result": "~24", "unit": "h"},
      {"measurement": "ERK pathway after a 10 min. exposure", "setting": "[6]; COLO829, concentrations several-fold lower than Kd / sub-micromolar", "result": "completely shut down"},
      {"measurement": "time to depletion of the phosphorylated form of ERK", "setting": "[6]; COLO829 cells, 1 microM hypothemycin, FIG. 8", "result": "≤ 10", "unit": "min"}
    ]}
  ]
}
